Measurements as given in patent US7781565B2 (priority 2006, dated 2010).
Entries after “also recorded” stand apart in the source; their conditions may differ.

system: NCI-60 cell lines; type: cell-based, human

Row | Substance | Cell Line (NCI-60 cell line the peptide is associated with) | Cell Line with which the peptide (and its tripeptide motif) is associated | Cell Line the peptide is associated with (peptide recovered from phage library selection on this NCI-60 cell line) | Cell Line (NCI-60 cell line the peptide and its motif are associated with)
1 | GGVRIAA | HCT-116 Colon |  |  | 
2 | VMLLRPE |  | HL-60-Leukemia |  | 
3 | SWGSGGS |  | Hop-92-Lung |  | 
4 | RGSRLPA |  | EKVX-Lung |  | 
5 | GPSFDAK |  |  | RXF393 Renal | 
6 | RGVASRS |  | H460-Lung |  | 
7 | MPAGLGV |  |  | RXF393 Renal | 
8 | LGGRLSL |  |  | MDA-MB-231 Breast | 
9 | AGLQHAV | HCT-15 Colon |  |  | 
10 | WAGLSRP |  |  | SN12C Renal | 
11 | LLSPRGT | SF-295 CNS |  |  | 
12 | GRSSAGP |  |  | MDA-MB-231 Breast | 
13 | GGSPGVW |  |  |  | SK-MEL-5 Melanoma
14 | DRYMLRS |  | H460-Lung |  | 
15 | WGVLQLE | LOX-IMVI Melanoma |  |  | 
16 | GSGILDL |  | EKVX-Lung |  | 
17 | GLGIMGP |  | K-562-Leukemia |  | 
18 | LPCGGLA | SNB-19 CNS; also recorded: SF-539 CNS |  |  | 
19 | SGVSISC |  |  |  | IGROV1 Ovarian
20 | RAGRDAP |  |  |  | UACC62 Melanoma
21 | GLSRGVL |  |  | ACHN Renal | 
22 | HSGVSHG |  | RPMI-8226-Leukemia |  | 
23 | HVSGGSG |  | Hop-92-Lung |  | 
24 | GVRYLRT | HCT-116 Colon |  |  | 
25 | FAGYGVL | SNB-19 CNS; also recorded: SF-539 CNS |  |  | 
26 | FGLRMSN |  |  | ACHN Renal | 

Row | Substance | Cell Line (NCI-60 cell line the peptide is associated with) | Cell Line with which the peptide (and its tripeptide motif) is associated | Cell Line the peptide is associated with (peptide recovered from phage library selection on this NCI-60 cell line) | Cell Line (NCI-60 cell line the peptide and its motif are associated with)
27 | ASLPMLH |  |  | ACHN Renal | 
28 | GGRVRGG |  |  |  | OVCAR-4 Ovarian
29 | DGGLNDC |  |  |  | OVCAR-5 Ovarian
30 | PVFRGGS |  |  | MDA-MB-231 Breast | 
31 | RAAGRVG | HCT-15 Colon |  |  | 
32 | PLLRQQL |  |  | ACHN Renal | 
33 | GVYWLRS |  |  | TK-10 Renal | 
34 | GGVLGSD | LOX-IMVI Melanoma |  |  | 
35 | RAAVSAI |  | Molt-4-Leukemia |  | 
36 | GRGDRGV |  |  |  | SK-MEL-28 Melanoma
37 | SRLSYRG |  | RPMI-8226-Leukemia |  | 
38 | LRVDQLY |  |  |  | UACC62 Melanoma
39 | MYLRLLR | HCT-116 Colon |  |  | 
40 | LIGRASM |  |  |  | SK-OV-3-3 Ovarian
41 | STEGGGL |  | Molt-4-Leukemia |  | 
42 | ADFFGLV |  | RPMI-8226-Leukemia |  | 
43 | EGRLMLA |  |  |  | MALME-3M Melanoma
44 | ERGVFVY |  |  | T-47D Breast | 
45 | ARHGSSV |  |  |  | M14 Melanoma
46 | RIGAVWY | HT-29 Colon |  |  | 
47 | LVRLVSL |  |  |  | IGROV1 Ovarian
48 | SNFYGSS |  |  |  | M14 Melanoma
49 | RGSVRVL |  | HL-60-Leukemia |  | 
50 | LGMGRGV |  |  | SN12C Renal | 
51 | GVRWNWS |  |  | RXF393 Renal | 
52 | FGVSGGS |  |  | MDA-MB-231 Breast | 

Row | Substance | Cell Line (NCI-60 cell line the peptide is associated with) | Cell Line with which the peptide (and its tripeptide motif) is associated | Cell Line the peptide is associated with (peptide recovered from phage library selection on this NCI-60 cell line) | Cell Line (NCI-60 cell line the peptide and its motif are associated with)
53 | VRLTGVR |  |  |  | SK-OV-3-3 Ovarian
54 | LRSMAVM |  |  | ACHN Renal | 
55 | GRLDAFG |  |  |  | SK-MEL-5 Melanoma
56 | VVMIAGS |  |  | MDA-MB-231 Breast | 
57 | LLRSVGY |  |  |  | DU-145 Prostate
58 | VGSVKAS |  |  |  | PC3 Prostate
59 | GGRRGTS |  |  | MCF-7 Breast | 
60 | GRVKPGA |  |  |  | DU-145 Prostate
61 | LAGSTRR |  | SR Leukemia |  | 
62 | SHCGPSN | SF-295 CNS |  |  | 
63 | SHTAGGG |  |  |  | PC3 Prostate
64 | VGRAGGL |  |  | MDA-MB-231 Breast | 
65 | VYWWGVS |  |  | A498 Renal | 
66 | RAVERVA |  |  | CAIK-1 Renal | 
67 | GEGGSGG |  |  |  | OVCAR-5 Ovarian
68 | GVRSMPV | LOX-IMVI Melanoma |  |  | 
69 | ALARGSG |  |  |  | SK-MEL-2 Melanoma
70 | EAVSRGS |  | K-562-Leukemia |  | 
71 | PAFGPSR |  | RPMI-8226-Leukemia |  | 
72 | GSSELSR |  |  |  | DU-145 Prostate
73 | RVSGSPV |  |  | NCI/ADR-RES Breast | 
74 | GDCGLVG |  |  |  | PC3 Prostate
75 | SITRGGL |  |  |  | DU-145 Prostate
76 | PGGSRHA |  |  |  | SK-MEL-5 Melanoma
77 | PQGRGVK | SNB-75 CNS |  |  | 
78 | PGLGYAL |  |  | T-47D Breast | 

Row | Substance | Cell Line (NCI-60 cell line the peptide is associated with) | Cell Line with which the peptide (and its tripeptide motif) is associated | Cell Line the peptide is associated with (peptide recovered from phage library selection on this NCI-60 cell line) | Cell Line (NCI-60 cell line the peptide and its motif are associated with)
79 | RHFGLRE |  | H522-Lung |  | 
80 | RVGAGAF |  |  |  | SK-OV-3-3 Ovarian
81 | GRPLGGR | HCT-15 Colon |  |  | 
82 | AAGRSRI |  |  |  | M14 Melanoma
83 | ARRGSGL | MALME-3M Melanoma |  |  | MALME-3M Melanoma
84 | SYWVGSS |  |  | MCF-7 Breast | 
85 | PEGGRRP |  |  | SN12C Renal | 
86 | GYSRASD | HT-29 Colon |  |  | 
87 | LLSLDPG |  |  |  | SK-MEL-2 Melanoma
88 | AGLSGSQ |  | RPMI-8226-Leukemia |  | 
89 | AGSVYSV |  |  |  | OVCAR-5 Ovarian
90 | WGSVAGI | SNB-75 CNS |  |  | 
91 | LWFELVS |  |  | MCF-7 Breast | 
92 | AAGGLLV | HCC-2998-Colon |  |  | 
93 | PRSSYNE |  | H460-Lung |  | 
94 | FRFVRGS |  |  | HS 578 T Breast | 
95 | REAERVS |  | H322-Lung |  | 
96 | GSSGLLA |  |  | NCI/ADR-RES Breast | 
97 | GVLEGRR |  |  |  | UACC 257 Melanoma
98 | GCDGGSA |  | H23-Lung |  | 
99 | FQRSGRL |  |  |  | SK-MEL-28 Melanoma
100 | LGYYGAV |  |  | T-47D Breast | 
101 | WGSGRGN |  | HL-60-Leukemia |  | 
102 | GWLNAAV |  |  |  | UACC 257 Melanoma
103 | PRYGVRA |  | RPMI-8226-Leukemia |  | 
104 | AARAVWG |  |  | RXF393 Renal | 

Row | Substance | Cell Line (NCI-60 cell line the peptide is associated with) | Cell Line with which the peptide (and its tripeptide motif) is associated | Cell Line the peptide is associated with (peptide recovered from phage library selection on this NCI-60 cell line) | Cell Line (NCI-60 cell line the peptide and its motif are associated with)
105 | SLGGRTF | SNB-75 CNS |  |  | 
106 | SGHGVSA |  | H23-Lung |  | 
107 | SVLGGRL |  | EKVX-Lung |  | 
108 | VDLRSAF |  |  | ACHN Renal | 
109 | IGASLLG | SF-268 CNS |  |  | 
110 | GVIGRGS |  |  |  | UACC62 Melanoma
111 | TRGSGAG |  |  | HS 578 T Breast | 
112 | GSSHDAL | SNB-19 CNS; also recorded: SF-539 CNS |  |  | 
113 | SAGGWCA | LOX-IMVI Melanoma |  |  | 
114 | GLVGWGI |  |  | BT-549 Breast | 
115 | WRLGAVG | SW620-Colon |  |  | 
116 | HGYRAGG |  | Hop-62-Lung |  | 
117 | GLEGSGG |  | H23-Lung |  | 
118 | GVSTGFT |  | K-562-Leukemia |  | 
119 | GAHGLVR |  | SR Leukemia |  | 
120 | NYMGPSA |  | A549-Lung |  | 
121 | ALAGGGL | SNB-75 CNS |  |  | 
122 | GSVSHRR |  |  |  | SK-OV-3-3 Ovarian
123 | WVGSGSP |  | Hop-92-Lung |  | 
124 | ALPGGGR |  |  |  | OVCAR-5 Ovarian
125 | LGAGEGD | SNB-75 CNS |  |  | 
126 | FSNARGY |  |  |  | DU-145 Prostate
127 | SGVSRGQ |  | Hop-92-Lung |  | 
128 | ERASQTA |  | K-562-Leukemia |  | 
129 | PRSSGPM |  |  | RXF393 Renal | 
130 | RYGTAGS |  |  | SN12C Renal | 
